Laboratory results reported in the NIST ThermoML archive (doi:10.1016/j.tca.2010.09.010).

Details: Crystal, TG

[Cd+2].[I-].[I-] [cadmium iodide (CdI2)]
Details | vapor or sublimation pressure [kPa]
740 K | 0.2888
745 K | 0.3252
750 K | 0.3668
755 K | 0.4124
760 K | 0.4631
765 K | 0.5198
770 K | 0.5826
